{"source": "patent US8796230B2", "about": "“Ivermectin antagonizes ethanol inhibition in P2X4 receptors” (University of Southern California, priority 2010, dated 2014)", "key": {"[1]": {"molecular_target": "T1, mutant P2X4Rs at position 336 (Rattus norvegicus, UniProt P51577, M336Q)", "T1 construct": "expressed in transfected cells; host or cells: Xenopus laevis oocytes injected with cRNA", "T1 sequence (P51577 1-388 M336Q)": "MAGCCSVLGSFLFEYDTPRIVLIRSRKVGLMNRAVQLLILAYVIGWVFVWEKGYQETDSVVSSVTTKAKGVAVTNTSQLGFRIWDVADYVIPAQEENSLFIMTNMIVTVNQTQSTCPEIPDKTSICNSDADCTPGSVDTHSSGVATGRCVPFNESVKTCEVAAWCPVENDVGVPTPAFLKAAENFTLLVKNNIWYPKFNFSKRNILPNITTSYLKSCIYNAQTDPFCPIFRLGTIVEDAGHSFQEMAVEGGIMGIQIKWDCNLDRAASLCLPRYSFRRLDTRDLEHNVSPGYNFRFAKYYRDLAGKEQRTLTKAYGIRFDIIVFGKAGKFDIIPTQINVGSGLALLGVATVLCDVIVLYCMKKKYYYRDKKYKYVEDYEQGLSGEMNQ", "assay": "Two-electrode voltage-clamp of ATP-induced currents in mutant P2X4Rs with substitutions at position 336 in Xenopus oocytes", "assay_type": "cell-based", "details": "Met336 substituted with Gln; IVM 3 μM", "experimental": "(§1) Site-directed mutagenesis and cRNA synthesis. The cDNA of rat P2X4R (GenBank accession No. X87763) was sub-cloned into pcDNA3 vector (Invitrogen, Carlsbad, Calif.). Mutagenesis was performed to introduce single point mutations using QuickChange IIXL Site-Directed Mutagenesis kit (Stratagene, La Jolla, Calif.). The sequences of mutant constructs were verified using automated DNA sequencing (USC/Norris DNA Core Facility, University of Southern California).\n(§2) Whole-cell voltage-clamp recordings. Two-electrode voltage-clamp recordings of oocytes were performed using a Warner Instruments Model OC-725C oocyte clamp amplifier (Hamden, Conn.) using procedures published earlier^5,6.\n(§3) Experimental procedures. To induce currents and test the effects of alcohols and IVM in the present experiments, maximal (100 μM) or submaximal ATP concentrations (EC5-10 furthered referred to as EC10) were used. It has been previously shown that the use of EC10 can maximize the effects of ethanol and minimize receptor desensitization 18,19. The washout time between agonist applications was at least 5-10 min to allow complete re-sensitization of the receptors^18, 19.\n(§4) Effects of the drugs were tested after a stable response to ATP EC10 was obtained. After a sufficient washout time (5-15 min), the cells were challenged with the same ATP EC10 to ensure an accurate response to the drugs and to asses any change in the baseline level.\n(§5) IVM and alcohol applications.\n(§6) Data analysis. Data are obtained from several batches of oocytes of at least 3 different frogs and are expressed as mean±SEM. Ethanol (hexanol) and/or IVM effects are presented as percentage change of peak currents evoked by ATP EC10 alone. Data were fitted to a concentration-response curve by using the following logistic equation: I=Imax*[drug]/([drug]+(EC50)), where I/Imax is the percentage of the maximum obtainable response, EC50 is the concentration producing a half-maximal response. GraphPAD Prism software (San Diego, Calif.) was used for data analysis and curve fitting. Statistical analysis was performed using unpaired t-test with significance set at P<0.05."}, "[2]": {"system": "mutant P2X4Rs at position 336", "assay": "Two-electrode voltage-clamp of ATP-induced currents in mutant P2X4Rs with substitutions at position 336 in Xenopus oocytes", "assay_type": "cell-based, rat", "details": "IVM 3 μM", "experimental": "as §1, §2, §3, §4, §5, §6"}, "P2X4Rs": {"molecular_target": "T2, P2X4Rs (Rattus norvegicus, UniProt P51577)", "T2 construct": "expressed in transfected cells; host or cells: Xenopus laevis oocytes injected with cRNA", "T2 sequence (P51577 1-388)": "T1 sequence (P51577 1-388 M336Q) with Q336M", "assay": "Surface biotinylation and Western blotting of P2X4R surface expression in oocytes", "assay_type": "cell-based", "details": "3 μM IVM in the presence of 1 μM ATP; 20 s and 2 min", "experimental": "Surface biotinylation and Western blotting. Oocytes expressing P2X4R cRNA were treated with 3 μM IVM in the presence and absence of 1 μM ATP and incubated with 1.0 mg/ml membrane-impermeable sulfo-NHS-SS-biotin (Pierce Biotechnology, Rockford, Ill.) for 1 hr on ice. After lysis, the biotinylated proteins were precipitated by overnight incubation with streptavidin beads (Pierce Biotechnology) and extracted using SDS sample buffer. Protein lysates of total and biotinylated fractions were then run on 10% SDS-PAGE, transferred to PVDF membranes and blotted with a rabbit P2X4R antibody (Millipore, Temecula, Calif.). Following incubation with the secondary anti-rabbit antibody, the P2X4R bands were visualized using enhanced chemiluminescence (Pierce Biotechnology)."}, "male C57BL/6 mice": {"system": "male C57BL/6 mice", "details": "10% alcohol, 24 hour access"}, "uninjected oocytes": {"system": "uninjected oocytes", "assay": "Resting membrane currents in uninjected oocytes", "excerpt": "IVM and alcohol applications. […] To allow comparison of the effects of IVM with those of ethanol, the same co-application protocol was used for IVM."}}, "note": "Substitutions are numbered along the chain they refer to. Read-outs that look alike come from different tables or passages of the source."}
{"smiles": "CC[C@H](C)[C@H]1O[C@]2(CC[C@@H]1C)C[C@@H]1C[C@@H](C/C=C(\\C)[C@@H](O[C@H]3C[C@H](OC)[C@@H](O[C@H]4C[C@H](OC)[C@@H](O)[C@H](C)O4)[C@H](C)O3)[C@@H](C)/C=C/C=C3\\CO[C@@H]4[C@H](O)C(C)=C[C@@H](C(=O)O1)[C@]34O)O2", "note": "[IVM, 5-O demethyl-22,23-dihydroavermectin A1a]", "values": [{"measurement": "IVM sensitivity compared to non-polar bulky substitutions", "setting": "[1]", "value": "approximately the same effect"}, {"measurement": "degree of IVM potentiation compared to WT P2X4Rs", "setting": "[2]; Met336 substituted with Ala or Val", "value": "markedly increased"}, {"measurement": "sensitivity to IVM", "setting": "[2]; Met336 substituted with Arg or Glu", "value": "eliminated sensitivity"}, {"measurement": "degree of IVM potentiation compared to WT P2X4Rs", "setting": "[2]; Met336 substituted with Phe or Trp", "value": "increased IVM potentiation"}, {"measurement": "surface expression levels of P2X4Rs in oocytes", "setting": "P2X4Rs", "value": "did not change"}, {"measurement": "decrease in alcohol consumption", "setting": "male C57BL/6 mice; IVM 2.5 mg/kg", "value": 32, "unit": "%"}, {"measurement": "decrease in alcohol consumption", "setting": "male C57BL/6 mice; IVM 10 mg/kg", "value": 50, "unit": "%"}, {"measurement": "resting membrane currents in uninjected oocytes", "setting": "uninjected oocytes", "value": "did not affect"}]}
